From ChEMBL document CHEMBL1140314, “Adamantyl cannabinoids: a novel class of cannabinergic ligands” (J Med Chem, 2005)

Experiments:
Cannabinoid receptor 2 = Cannabinoid receptor 2 (Mus musculus, UniProt P47936); experiment: Inhibition of [3H]CP-55940 binding to cannabinoid receptor 2 of mouse spleen membranes; assay type: tissue-based
Cannabinoid receptor 1 = Cannabinoid receptor 1 (Rattus norvegicus, UniProt P20272); experiment: Inhibition of [3H]CP-55940 binding to cannabinoid receptor 1 of rat brain
Sequence of Cannabinoid receptor 1 (P20272 whole entry): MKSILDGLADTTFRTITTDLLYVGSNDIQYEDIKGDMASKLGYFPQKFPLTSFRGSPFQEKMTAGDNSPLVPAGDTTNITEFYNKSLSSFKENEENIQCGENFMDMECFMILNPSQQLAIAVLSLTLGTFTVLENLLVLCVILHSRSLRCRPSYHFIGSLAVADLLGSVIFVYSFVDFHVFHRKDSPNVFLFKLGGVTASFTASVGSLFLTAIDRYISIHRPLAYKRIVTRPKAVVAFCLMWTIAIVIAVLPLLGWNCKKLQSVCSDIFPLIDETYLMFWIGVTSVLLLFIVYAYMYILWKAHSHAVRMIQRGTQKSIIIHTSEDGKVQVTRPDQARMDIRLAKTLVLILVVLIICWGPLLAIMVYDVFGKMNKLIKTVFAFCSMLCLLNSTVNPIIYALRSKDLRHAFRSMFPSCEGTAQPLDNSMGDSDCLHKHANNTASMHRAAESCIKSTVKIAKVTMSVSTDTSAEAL

Rattus norvegicus [1] = experiment: In vivo cannabinergic activity in rat after 30 min of dose administration (0.03-1.8 mg/kg) using drug discrimination assay; assay type: functional; conditions: 0.5 h
Rattus norvegicus [2] = experiment: In vivo cannabinergic activity in rat after 90 min of dose administration (0.03-1.8 mg/kg) using drug discrimination assay; assay type: functional

Sequence of Cannabinoid receptor 2 (P47936 whole entry): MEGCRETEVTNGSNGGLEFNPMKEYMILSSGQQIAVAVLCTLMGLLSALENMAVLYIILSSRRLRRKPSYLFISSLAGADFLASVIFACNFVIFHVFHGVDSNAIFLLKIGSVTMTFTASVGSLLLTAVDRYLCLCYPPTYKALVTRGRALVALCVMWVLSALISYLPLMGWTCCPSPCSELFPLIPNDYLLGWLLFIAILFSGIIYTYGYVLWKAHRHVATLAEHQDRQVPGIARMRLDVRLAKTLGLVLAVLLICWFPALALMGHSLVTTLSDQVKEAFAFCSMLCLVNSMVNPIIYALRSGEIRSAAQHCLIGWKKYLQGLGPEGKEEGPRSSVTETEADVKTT

| SMILES | Ki (Cannabinoid receptor 2) | Ki (Cannabinoid receptor 1) | ED50 (Rattus norvegicus [1]) | ED50 (Rattus norvegicus [2]) | ED50 (Rattus norvegicus [2]; Rattus norvegicus, 1.5 h, read-out: ED50) |
| --- | --- | --- | --- | --- | --- |
| CC1=CC[C@@H]2[C@@H](C1)c1c(O)cc(C=C3C4CC5CC(C4)CC3C5)cc1OC2(C)C | 8.9 nM | 48.6 nM |  |  |  |
| CC1=CC[C@@H]2[C@@H](C1)c1c(O)cc(C3C4CC5CC(C4)CC3C5)cc1OC2(C)C (stereo partly drawn) | 14 nM | 34.9 nM |  |  |  |
| CC1=CC[C@@H]2[C@@H](C1)c1c(O)cc(CC3C4CC5CC(C4)CC3C5)cc1OC2(C)C (stereo partly drawn) | 76 nM | 79.7 nM |  |  |  |
| CC1=CC[C@@H]2[C@@H](C1)c1c(O)cc(C34CC5CC(CC(C5)C3)C4)cc1OC2(C)C | 52 nM | 6.8 nM | 0.68 mg/kg | 0.41 mg/kg | 0.44 mg/kg |
| CC1=CC[C@@H]2[C@@H](C1)c1c(O)cc(CC34CC5CC(CC(C5)C3)C4)cc1OC2(C)C | 26.9 nM | 29.3 nM |  |  |  |
